Test results from ChEMBL document CHEMBL1147320, “Isolation of a novel tyrosine kinase inhibitor, lavendustin A, from Streptomyces griseolavendus” (J Nat Prod, 1989).
Converted amounts (≈) assume the structure as drawn. Values belong to the compound of their own block, whether it stands above or below them. The source made the active and inactive calls. The rule behind the calls is not given here.

How the values were obtained:
[1] = biological target: Epidermal growth factor receptor (Mus musculus, UniProt Q01279); experiment: Inhibition of mouse EGFR by liquid scintillation counting
[2] = Cytotoxicity against mouse NIH/3T3 cells; format: cell-based; conditions: NIH3T3
NIH3T3 = experiment: Cytotoxicity against RSV transformed mouse NIH/3T3 cells; format: functional, cell-based
[3] = Inhibition of protein kinase A
[4] = biological target: Epidermal growth factor receptor (Mus musculus) (UniProt Q01279); experiment: Inhibition of mouse EGFR using [32P]gammaATP as substrate by competitive Lineweaver-Burke plot
[5] = Inhibition of protein kinase C
L1210 = experiment: Cytotoxicity against mouse L1210 cells; format: functional, cell-based
P388 = experiment: Cytotoxicity against mouse P388 cells; format: functional, cell-based
[6] = biological target: Epidermal growth factor receptor (Mus musculus) (UniProt Q01279); experiment: Inhibition of mouse EGFR using tridecapeptide as substrate by uncompetitive Lineweaver-Burke plot
[7] = Inhibition of phosphatidylinositol kinase
A-431 = experiment: Cytotoxicity against human A431 cells; format: functional, cell-based
[8] = biological target: Epidermal growth factor receptor (Homo sapiens, UniProt P00533)
Epidermal growth factor receptor (Homo sapiens, UniProt P00533), sequence (P00533 whole entry): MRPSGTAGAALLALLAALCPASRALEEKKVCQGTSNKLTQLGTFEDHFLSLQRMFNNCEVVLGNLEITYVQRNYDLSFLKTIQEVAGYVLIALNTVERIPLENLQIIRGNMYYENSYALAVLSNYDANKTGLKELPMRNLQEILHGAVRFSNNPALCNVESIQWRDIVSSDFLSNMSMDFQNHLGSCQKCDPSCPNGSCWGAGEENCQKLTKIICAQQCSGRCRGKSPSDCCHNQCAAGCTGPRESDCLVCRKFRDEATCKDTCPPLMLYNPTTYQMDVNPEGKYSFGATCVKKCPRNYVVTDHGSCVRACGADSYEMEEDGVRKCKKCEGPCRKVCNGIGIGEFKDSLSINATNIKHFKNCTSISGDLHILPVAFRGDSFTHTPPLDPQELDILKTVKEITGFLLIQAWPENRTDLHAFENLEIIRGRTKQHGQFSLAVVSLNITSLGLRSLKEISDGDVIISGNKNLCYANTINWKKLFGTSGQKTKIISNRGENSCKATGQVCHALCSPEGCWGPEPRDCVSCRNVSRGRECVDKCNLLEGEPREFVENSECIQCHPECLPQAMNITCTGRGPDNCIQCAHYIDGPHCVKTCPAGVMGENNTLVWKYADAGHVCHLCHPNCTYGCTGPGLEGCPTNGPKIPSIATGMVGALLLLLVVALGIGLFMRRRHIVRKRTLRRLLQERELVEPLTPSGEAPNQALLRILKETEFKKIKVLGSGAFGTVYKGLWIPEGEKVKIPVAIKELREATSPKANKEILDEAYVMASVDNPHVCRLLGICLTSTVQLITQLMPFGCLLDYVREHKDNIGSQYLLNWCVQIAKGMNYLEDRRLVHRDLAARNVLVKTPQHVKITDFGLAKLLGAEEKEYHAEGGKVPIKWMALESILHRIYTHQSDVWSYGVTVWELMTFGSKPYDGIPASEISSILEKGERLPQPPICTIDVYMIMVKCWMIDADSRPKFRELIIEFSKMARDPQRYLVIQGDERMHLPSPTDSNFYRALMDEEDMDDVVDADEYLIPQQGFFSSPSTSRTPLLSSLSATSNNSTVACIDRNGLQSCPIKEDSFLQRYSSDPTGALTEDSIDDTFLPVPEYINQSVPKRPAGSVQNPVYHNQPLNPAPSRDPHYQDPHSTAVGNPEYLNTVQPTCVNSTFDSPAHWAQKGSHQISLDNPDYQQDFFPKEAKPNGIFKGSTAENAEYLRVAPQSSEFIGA

Epidermal growth factor receptor (Mus musculus, UniProt Q01279), sequence (Q01279 whole entry): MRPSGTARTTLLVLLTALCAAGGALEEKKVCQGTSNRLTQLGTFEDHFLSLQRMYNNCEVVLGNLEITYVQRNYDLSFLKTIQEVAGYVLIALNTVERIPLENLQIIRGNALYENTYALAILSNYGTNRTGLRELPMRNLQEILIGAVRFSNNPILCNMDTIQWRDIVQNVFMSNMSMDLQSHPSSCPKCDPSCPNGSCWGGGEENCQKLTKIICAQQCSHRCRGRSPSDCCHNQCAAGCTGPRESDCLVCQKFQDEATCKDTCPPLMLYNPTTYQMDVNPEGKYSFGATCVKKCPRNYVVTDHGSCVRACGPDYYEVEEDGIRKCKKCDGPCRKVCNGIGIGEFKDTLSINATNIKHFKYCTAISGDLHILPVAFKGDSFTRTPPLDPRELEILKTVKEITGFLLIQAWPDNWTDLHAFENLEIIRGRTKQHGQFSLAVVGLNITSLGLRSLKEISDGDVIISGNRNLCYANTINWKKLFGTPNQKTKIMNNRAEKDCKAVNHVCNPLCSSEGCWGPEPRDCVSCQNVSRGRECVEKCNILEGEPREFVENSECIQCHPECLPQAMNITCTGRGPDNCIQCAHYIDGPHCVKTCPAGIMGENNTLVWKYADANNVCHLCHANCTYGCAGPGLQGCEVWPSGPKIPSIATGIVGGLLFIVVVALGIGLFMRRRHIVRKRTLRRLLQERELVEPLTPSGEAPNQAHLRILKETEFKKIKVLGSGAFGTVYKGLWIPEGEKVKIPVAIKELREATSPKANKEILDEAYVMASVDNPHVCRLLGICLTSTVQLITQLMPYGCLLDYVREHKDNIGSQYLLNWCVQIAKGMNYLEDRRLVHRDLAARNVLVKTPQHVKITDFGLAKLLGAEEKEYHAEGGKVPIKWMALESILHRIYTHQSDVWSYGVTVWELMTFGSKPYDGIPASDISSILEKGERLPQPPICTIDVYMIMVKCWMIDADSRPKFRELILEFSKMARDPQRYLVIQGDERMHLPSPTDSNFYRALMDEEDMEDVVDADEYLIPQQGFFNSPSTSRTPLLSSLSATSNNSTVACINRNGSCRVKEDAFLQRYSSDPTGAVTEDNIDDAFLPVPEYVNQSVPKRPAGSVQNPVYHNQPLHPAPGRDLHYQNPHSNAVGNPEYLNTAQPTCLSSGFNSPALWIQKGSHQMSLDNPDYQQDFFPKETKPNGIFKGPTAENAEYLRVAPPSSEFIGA
Epidermal growth factor receptor (Mus musculus), sequence (Q01279 whole entry): as above

IC50 [1]: > 653000 nM
Structure (SMILES): Nc1cc(C(=O)O)ccc1O

IC50 [1]: 1340 nM
Structure (SMILES): O=C(O)c1cc(N(Cc2ccccc2O)Cc2ccccc2O)ccc1O [LAVENDUSTIN B]

IC50 [1]: 2780 nM
Structure (SMILES): O=C(O)c1cc(/N=C\c2cc(O)ccc2O)ccc1O

IC50 [1]: 17600 nM
Structure (SMILES): Nc1ccc(O)c(C(=O)O)c1 [MESALAMINE]

Second part, the compound before the results:

Structure (SMILES): O=C(O)c1cc(N(Cc2ccccc2O)Cc2cc(O)ccc2O)ccc1O [LAVENDUSTIN A]
IC50 [2]: 22 µg/mL (≈ 57.7 µM)
IC50 (NIH3T3): 19.5 µg/mL (≈ 51.1 µM)
IC50 [3]: > 100 µg/mL
Activity [4]: Active
IC50 [5]: > 100 µg/mL
IC50 (L1210): 28 µg/mL (≈ 73.4 µM)
IC50 (P388): 21.5 µg/mL (≈ 56.4 µM)
Activity [6]: Active
IC50 [7]: 6.4 µg/mL (≈ 16.8 µM)
IC50 (A-431): 26 µg/mL (≈ 68.2 µM)
IC50 [1]: 11.5 nM

Structure (SMILES): O=C(O)c1ccc(O)c(N(Cc2ccccc2O)Cc2cc(O)ccc2O)c1
IC50 [1]: 446 nM

Structure (SMILES): O=Cc1cc(O)ccc1O
IC50 [1]: 239000 nM

Structure (SMILES): O=C(O)c1cc(N(Cc2cc(O)ccc2O)Cc2cc(O)ccc2O)ccc1O
IC50 [1]: 27.7 nM

Structure (SMILES): O=CN/C=C/c1cc(O)ccc1O [ERBSTATIN]
IC50 [3]: 100 µg/mL (≈ 558 µM)
IC50 [5]: > 179 µg/mL
IC50 [8]: 1120 nM
IC50 [7]: 25 µg/mL (≈ 140 µM)
IC50 [1]: 1120 nM
